{"source": "patent US9216220B2", "about": "“Compositions and methods for thermo-sensitive nanoparticles and magnetic nanoparticles” (BOARD OF REGENTS, THE UNIVERSITY OF TEXAS SYSTEM, priority 2008, dated 2015)", "system": "Prostate cancer cells (i.e., JHU31)", "test": "Cancer cell viability, MTS assay, DOX-loaded nanoparticles", "type": "cell-based", "conditions": "37° C., 24 hours; nanoparticles 500 μg/ml", "method": "In order to investigate the pharmacological activity of the in vitro released DOX from the functionalized copolymer magnetic nanoparticles, cancer cell viability was conducted using MTS assays (Promega) according to the manufacturer's instruction. Prostate cancer cells (i.e., JHU31) were cultured to confluence, harvested by trypsinization, and dispersed in RPMI supplemented with 10% serum and 1% penicillin-streptomycin. Cells were seeded at a density of approximately 10,000 cells/well in 24-well plates for 24 hours at 37° C., and then were then incubated with nanoparticles, DOX-loaded nanoparticles, and free DOX. The concentration of functionalized copolymer magnetic nanoparticles and DOX-loaded functionalized copolymer magnetic nanoparticles was 500 μg/ml. This nanoparticle concentration was selected according to drug release results from the nanoparticles indicated above and the optimal inhibition dose of DOX on prostate cancer cell growth studies. The prostate cancer cells were incubated with each group at 37° C., 41° C., and temperature cycles between 37° C. and 41° C. (one hour at each temperature for one cycle) for 24 hours."}
{"smiles": "COc1cccc2c1C(=O)c1c(O)c3c(c(O)c1C2=O)C[C@@](O)(C(=O)CO)C[C@@H]3O[C@H]1C[C@H](N)[C@H](O)[C@H](C)O1", "note": "[DOX, doxorubicin]", "values": [{"measurement": "cell viability in comparison to the control", "result": 20, "unit": "%"}]}
